Measurements reported in DBAASP.
Values after ≈ are worked out from the molar mass of the structure shown.

Assays:
Assay in all cases: ≥ marks a high value that may be exact or a test limit, other limits are often not marked, values filed in µg/mL are converted to µM
Candida albicans C627 = test system: Candida albicans C627
[1] = test system: Enterococcus faecium mic80
[2] = test system: Escherichia coli ESBL 63103
[3] = test system: Pseudomonas aeruginosa 213
[4] = test system: Pseudomonas aeruginosa H103
[5] = test system: Pseudomonas aeruginosa LES400
[6] = test system: Staphylococcus aureus ATCC 25923
[7] = test system: Staphylococcus aureus C623
Candida albicans MDM8 = test system: Candida albicans MDM8
Escherichia coli SBS 363 = test system: Escherichia coli SBS 363
Micrococcus luteus A270 = test system: Micrococcus luteus A270
[8] = test system: Pseudomonas aeruginosa Ps4
[9] = test system: Escherichia coli ATCC 25922
Escherichia coli = test system: Escherichia coli
[10] = test system: Salmonella enterica subsp. enterica serovar Enteritidis
Salmonella sp. = test system: Salmonella sp.
[11] = test system: Staphylococcus aureus ATCC 29213
[12] = test system: Staphylococcus aureus ATCC 43300
Yersinia enterocolitica = test system: Yersinia enterocolitica
[13] = test system: Bacillus subtilis ATCC 6633
[14] = test system: Klebsiella pneumoniae ATCC 10031
[15] = test system: Micrococcus luteus ATCC 10240
[16] = test system: Pseudomonas aeruginosa ATCC 27853
[17] = test system: Salmonella enterica subsp. enterica serovar Typhimurium ATCC 14028
[18] = test system: Shigella dysenteriae ATCC 9752
[19] = test system: Staphylococcus aureus ATCC 6538P
[20] = test system: Staphylococcus epidermidis ATCC 12228

Compound | MIC [8] [µM] | MIC [9] [µM] | MIC (Escherichia coli) [µM] | MIC [10] [µM] | MIC (Salmonella sp.) [µM] | MIC [11] [µM] | MIC [12] [µM] | MIC (Yersinia enterocolitica) [µM] | other results
NCCCC[C@H](NC(=O)[C@@H](N)CCCCN)C(=O)N[C@@H](CCCN=C(N)N)C(=O)N[C@@H](Cc1c[nH]c2ccccc12)C(=O)N[C@@H](Cc1c[nH]c2ccccc12)C(=O)N[C@@H](Cc1c[nH]c2ccccc12)C(=O)N[C@@H](Cc1c[nH]c2ccccc12)C(=O)N[C@@H](Cc1c[nH]c2ccccc12)C(=O)N[C@@H](CCCN=C(N)N)C(=O)O [KKRWWWWWR] | – | – | – | – | – | – | – | – | MIC (Candida albicans C627): 2.64 µM (≈ 4 µg/mL); MIC [1]: 5.27 µM (≈ 8 µg/mL); MIC [2]: 5.27 µM (≈ 8 µg/mL); MIC [3]: 21.1 µM (≈ 32 µg/mL); MIC [4]: 2.64 µM (≈ 4 µg/mL); MIC [5]: 21.1 µM (≈ 32 µg/mL); MIC [6]: 2.64 µM (≈ 4 µg/mL); MIC [7]: 1.32 µM (≈ 2 µg/mL)
CC[C@H](C)[C@H](NC(=O)[C@H](CC(C)C)NC(=O)[C@H](CO)NC(=O)[C@H](CC(C)C)NC(=O)[C@H](CC(C)C)NC(=O)[C@@H](N)CO)C(=O)N[C@@H](CCCN=C(N)N)C(=O)N[C@@H](CCCCN)C(=O)N[C@@H](Cc1ccccc1)C(=O)N[C@@H](Cc1ccccc1)C(=O)N[C@H](C(N)=O)[C@@H](C)O [SLLSLIRKFFT] | – | – | – | – | – | – | – | – | MIC (Candida albicans MDM8): 1.56 µM (≈ 2.06 µg/mL); MIC (Escherichia coli SBS 363): 1.56 µM (≈ 2.06 µg/mL); MIC (Micrococcus luteus A270): 0.39 µM (≈ 0.516 µg/mL)
CC[C@H](C)[C@H](NC(=O)[C@@H](N)CCCN=C(N)N)C(=O)N[C@@H](Cc1c[nH]c2ccccc12)C(=O)N[C@@H](CCCCN)C(=O)N[C@@H](CCCN=C(N)N)C(=O)N[C@@H](Cc1c[nH]c2ccccc12)C(=O)N[C@@H](Cc1c[nH]c2ccccc12)C(=O)N[C@@H](Cc1ccccc1)C(=O)N[C@@H](CCCN=C(N)N)C(=O)O [RIWKRWWFR] | – | – | – | – | – | – | – | – | MIC (Candida albicans C627): ≥ 89.3 µM; MIC [1]: ≥ 44.6 µM; MIC [2]: ≥ 44.6 µM; MIC [3]: ≥ 89.3 µM; MIC [4]: ≥ 89.3 µM; MIC [5]: ≥ 89.3 µM; MIC [6]: 44.6 µM (≈ 64 µg/mL); MIC [7]: 22.3 µM (≈ 32 µg/mL)
CC[C@H](C)[C@H](NC(=O)[C@H](CC(N)=O)NC(=O)[C@H](CCCN=C(N)N)NC(=O)[C@H](CCC(N)=O)NC(=O)[C@H](Cc1c[nH]c2ccccc12)NC(=O)[C@H](Cc1ccccc1)NC(=O)[C@@H](N)CS)C(=O)N[C@@H](CCCN=C(N)N)C(=O)N[C@@H](CCCCN)C(=O)N[C@H](C(=O)N[C@@H](CCCN=C(N)N)C(=O)N[C@@H](CS)C(N)=O)C(C)C [CFWQRNIRKVRC] | ≥ 155 | – | – | – | – | – | – | – | –
CC[C@H](C)[C@H](NC(=O)[C@H](CC(N)=O)NC(=O)[C@H](CCCN=C(N)N)NC(=O)[C@H](CCC(N)=O)NC(=O)[C@H](Cc1c[nH]c2ccccc12)NC(=O)[C@@H](N)Cc1ccccc1)C(=O)N[C@@H](CCCN=C(N)N)C(=O)N[C@@H](Cc1ccccc1)C(=O)N[C@@H](CCCN=C(N)N)C(=O)N[C@@H](CCCN=C(N)N)C(N)=O [FWQRNIRFRR] | ≥ 250 | – | – | – | – | – | – | – | –
CC[C@H](C)[C@H](NC(=O)[C@H](CCCCN)NC(=O)[C@@H](NC(=O)[C@H](CCC(N)=O)NC(=O)[C@@H](N)CCCN=C(N)N)[C@@H](C)CC)C(=O)N[C@@H](CCCN=C(N)N)C(=O)N[C@@H](CCCN=C(N)N)C(=O)N[C@@H](CCSC)C(=O)N[C@@H](CCCCN)C(=O)N[C@@H](Cc1c[nH]c2ccccc12)C(=O)N[C@@H](CCCN=C(N)N)C(N)=O [RQIKIRRMKWR] | – | 7.96 (≈ 12.5 µg/mL) | 3.56 (≈ 5.59 µg/mL) | 31.8 (≈ 50 µg/mL) | 3.18 (≈ 5 µg/mL) | > 31.8 | 31.8 (≈ 50 µg/mL) | 3.98 (≈ 6.25 µg/mL) | –
CC[C@H](C)[C@H](NC(=O)[C@H](CCC(N)=O)NC(=O)[C@@H](N)CCCN=C(N)N)C(=O)N[C@@H](Cc1c[nH]c2ccccc12)C(=O)N[C@@H](Cc1c[nH]c2ccccc12)C(=O)N[C@@H](Cc1c[nH]c2ccccc12)C(=O)N[C@@H](Cc1c[nH]c2ccccc12)C(=O)N[C@@H](CCC(N)=O)C(=O)N[C@@H](CCCN=C(N)N)C(N)=O [RQIWWWWQR] | – | 4.33 (≈ 6.25 µg/mL) | 4.33 (≈ 6.25 µg/mL) | 8.65 (≈ 12.5 µg/mL) | 4.33 (≈ 6.25 µg/mL) | 34.6 (≈ 50 µg/mL) | > 34.6 | 17.3 (≈ 25 µg/mL) | –
CC[C@H](C)[C@H](NC(=O)[C@H](CC(N)=O)NC(=O)[C@H](CCCN=C(N)N)NC(=O)[C@H](CCC(N)=O)NC(=O)[C@H](Cc1c[nH]c2ccccc12)NC(=O)[C@H](Cc1ccccc1)NC(=O)[C@@H](N)CCCN=C(N)N)C(=O)N[C@@H](CCCN=C(N)N)C(=O)N[C@@H](CCCCN)C(=O)N[C@@H](Cc1ccc(O)cc1)C(=O)N[C@@H](CCCN=C(N)N)C(N)=O [RFWQRNIRKYR] | ≥ 154 | – | – | – | – | – | – | – | –
CC(C)C[C@H](NC(=O)[C@H](CC(C)C)NC(=O)[C@H](Cc1c[nH]c2ccccc12)NC(=O)[C@H](CCCCN)NC(=O)[C@H](CC(C)C)NC(=O)[C@H](CC(C)C)NC(=O)[C@@H](N)CCCCN)C(=O)N[C@@H](CCCCN)C(N)=O [KLLKWLLK] | – | 96 (≈ 99.9 µg/mL) | – | – | – | – | – | – | MIC [13]: ≥ 48 µM; MIC [14]: ≥ 96 µM; MIC [15]: ≥ 96 µM; MIC [16]: 96 µM (≈ 99.9 µg/mL); MIC [17]: > 192 µM; MIC [18]: ≥ 192 µM; MIC [19]: 24 µM (≈ 25 µg/mL); MIC [20]: 192 µM (≈ 200 µg/mL)
CC[C@H](C)[C@H](NC(=O)[C@H](CC(N)=O)NC(=O)[C@H](CCCN=C(N)N)NC(=O)[C@@H]1CCCN1C(=O)[C@H](Cc1c[nH]c2ccccc12)NC(=O)[C@@H](N)Cc1ccccc1)C(=O)N[C@@H](CCCN=C(N)N)C(=O)N[C@@H](CCCCN)C(=O)N[C@H](C(=O)N[C@@H](CCCN=C(N)N)C(N)=O)C(C)C [FWPRNIRKVR] | ≥ 182 | – | – | – | – | – | – | – | –
CC[C@H](C)[C@H](NC(=O)[C@H](CCCCN)NC(=O)[C@@H](NC(=O)[C@H](CCCN=C(N)N)NC(=O)[C@H](CCCN=C(N)N)NC(=O)[C@H](CCSC)NC(=O)[C@H](CCCCN)NC(=O)[C@H](Cc1c[nH]c2ccccc12)NC(=O)[C@@H](N)CCCN=C(N)N)[C@@H](C)CC)C(=O)N[C@@H](CCC(N)=O)C(=O)N[C@@H](CCCN=C(N)N)C(N)=O [RWKMRRIKIQR] | – | > 31.8 | > 31.8 | 31.8 (≈ 50 µg/mL) | 31.8 (≈ 50 µg/mL) | > 31.8 | > 31.8 | 31.8 (≈ 50 µg/mL) | –
CSCC[C@H](NC(=O)[C@H](CCCN=C(N)N)NC(=O)[C@H](CCCN=C(N)N)NC(=O)[C@@H](N)CC(N)=O)C(=O)N[C@@H](CCCCN)C(=O)N[C@@H](Cc1c[nH]c2ccccc12)C(=O)N[C@@H](CCCCN)C(=O)N[C@@H](CCCCN)C(N)=O [NRRMKWKK] | – | > 50 | > 50 | ≥ 50 | ≥ 50 | > 50 | > 50 | ≥ 50 | MIC [16]: > 50 µM
CC[C@H](C)[C@H](NC(=O)[C@H](CCC(N)=O)NC(=O)[C@@H](N)CCCN=C(N)N)C(=O)N[C@H](C(=O)N[C@@H](CCCN=C(N)N)C(=O)N[C@@H](CCCN=C(N)N)C(=O)N[C@@H](CCSC)C(=O)N[C@@H](Cc1c[nH]c2ccccc12)C(=O)N[C@@H](CCCN=C(N)N)C(N)=O)[C@@H](C)CC [RQIIRRMWR] | – | > 38 | 19 (≈ 25 µg/mL) | ≥ 38 | ≥ 38 | > 38 | > 38 | ≥ 38 | –
NCCCC[C@H](NC(=O)[C@H](Cc1c[nH]c2ccccc12)NC(=O)[C@@H](N)CCCCN)C(=O)N[C@@H](CCCN=C(N)N)C(=O)N[C@@H](Cc1c[nH]c2ccccc12)C(=O)N[C@@H](Cc1c[nH]c2ccccc12)C(=O)N[C@@H](Cc1c[nH]c2ccccc12)C(=O)N[C@@H](Cc1ccccc1)C(=O)N[C@@H](CCCN=C(N)N)C(=O)O [KWKRWWWFR] | – | – | – | – | – | – | – | – | MIC (Candida albicans C627): 21.6 µM (≈ 32 µg/mL); MIC [1]: 21.6 µM (≈ 32 µg/mL); MIC [2]: 10.8 µM (≈ 16 µg/mL); MIC [3]: ≥ 86.6 µM; MIC [4]: 21.6 µM (≈ 32 µg/mL); MIC [5]: ≥ 43.3 µM; MIC [6]: 21.6 µM (≈ 32 µg/mL); MIC [7]: 10.8 µM (≈ 16 µg/mL)
CC[C@H](C)[C@H](NC(=O)[C@H](CCCN=C(N)N)NC(=O)[C@@H](NC(=O)[C@H](CC(N)=O)NC(=O)[C@H](CCCN=C(N)N)NC(=O)[C@H](CCC(N)=O)NC(=O)[C@H](Cc1c[nH]c2ccccc12)NC(=O)[C@H](Cc1ccccc1)NC(=O)[C@@H](N)CCCN=C(N)N)[C@@H](C)CC)C(=O)N[C@@H](CCCN=C(N)N)C(=O)N[C@@H](CCCN=C(N)N)C(N)=O [RFWQRNIRIRR] | ≥ 156 | – | – | – | – | – | – | – | –
